Source: patent US11369651B2, “Uses of FU-LING (Poria cocos) extract and tumulosic acid in protecting muscles” (SINPHAR PHARMACEUTICAL CO., LTD. (DONGSHAN, TAIWAN), priority 2016, dated 2022)

Tests used:
Format in all cases: cell-based, mice
[1] = tested on: C2C12 cells; experiment: TNF-α induced muscle cell injury model, intracellular ROS; settings: 4 days in differentiation medium, relative to 0 ng/mL
Method: Firstly, C2C12 cells (i.e., myoblasts of mice, purchased from ATCC) were cultured in H-DMEM medium (purchased from Sigma company) until 80% confluence was attained (i.e., the mixed cell monolayer comprised 80% of the area). Thereafter, the cells were separated into four groups, and the mediums of all the groups were replaced by differentiation mediums supplemented with 2% horse serum. TNF-α (purchased from Sigma company) was then added into those mediums to provide final concentrations of 0, 2, 5 or 10 ng/mL respectively. After being co-treated with the differentiation medium and TNF-α for 4 days, the intracellular reactive oxidative stress (ROS) of the C2C12 cells was measured to serve as the index for model evaluation. Accordingly, a TNF-α induced muscle cell injury model was established. Finally, the group that was not treated with TNF-α (i.e., the concentration of TNF-α was 0 ng/mL) served as a basis for calculating the relative intracellular ROS of the other groups. The results are shown in FIG. 1 (all the data are presented as average values±SEM, n=6, analyzed with a t-test, ***p<0.001).

[2] = tested on: myogenin; experiment: Expression of myoblast differentiation marker myogenin in C2C12 cells by Western blot; settings: for Expression level of myogenin (%): 4 days, control group = 100%; for increase of the expression level of myogenin protein: vs control
Text: (§1) As described above, myogenin and MyHC can be used as markers for myoblast differentiation. To investigate whether FU-LING extract and tumulosic acid have the effect of promoting differentiation of myoblasts, tumulosic acid (purchased from Sinphar pharmaceutical co. ltd), FU-LING meat extract obtained from Example 1 (1-4), FU-LING epidermis extract obtained from Example 1 (1-6), and the FU-LING fermentation extract obtained from Example 1 (1-7) were formulated into the following: (1) tumulosic acid solution, (2) FU-LING meat extract solution, (3) FU-LING epidermis extract solution, and (4) FU-LING fermentation extract solution, respectively, in dimethyl sulfoxide (DMSO; purchased from Sigma Company).
(§2) After 80% confluence of cells was attained in H-DMEM medium, cells were separated into fourteen groups and treated as follows: • (1) Control group: The medium was replaced by a differentiation medium supplemented with 2% horse serum, and the cells were cultured for 4 days. • (2) Meat extract group (3 groups): The medium was replaced by a differentiation medium supplemented with 2% horse serum, and FU-LING meat extract solution was then added into the medium (the final concentration was 0.1, 1 or 10 ng/mL) to perform a co-treatment for 4 days. • (3) Epidermis extract group (4 groups): The medium was replaced by a differentiation medium supplemented with 2% horse serum, and FU-LING epidermis extract solution was then added into the medium (the final concentration was 0.01, 0.1, 0.5 or 1 ng/mL) to perform a co-treatment for 4 days. • (4) Fermentation extract group (3 groups): The medium was replaced by a differentiation medium supplemented with 2% horse serum, and FU-LING fermentation extract solution was then added into the medium (the final concentration was 0.2, 2, or 20 ng/mL) to perform a co-treatment for 4 days. • (5) Tumulosic acid group (4 groups): The medium was replaced by a differentiation medium supplemented with 2% horse serum, and tumulosic acid solution was then added into the medium (the final concentration was 0.01, 0.1, 1 or 10 ng/mL) to perform a co-treatment for 4 days.
(§3) After that, cell proteins in each group were extracted. Thereafter, the expression levels of myoblast differentiation markers (myogenin and MyHC) were detected by Western blot. Finally, the control group served as a basis (e.g., the expression level of the control group was 100%) for calculating the relative expression levels of myogenin and MyHC proteins in each group.

[3] = tested on: MyHC; experiment: Expression of myoblast differentiation marker MyHC in C2C12 cells by Western blot; settings: for Expression level of MyHC (%): 4 days, control group = 100%
Text: as §1, §2, §3

| Compound | intracellular reactive oxidative stress (ROS) of C2C12 cells ([1]; 5 ng/mL TNF-α) | intracellular reactive oxidative stress (ROS) of C2C12 cells ([1]; 10 ng/mL TNF-α) | Expression level of myogenin (%) ([2]; 0.01 ng/mL) | Expression level of myogenin (%) ([2]; 0.1 ng/mL) | Expression level of myogenin (%) ([2]; 1 ng/mL) | Expression level of myogenin (%) ([2]; 10 ng/mL) | increase of the expression level of myogenin protein ([2]; 10 μg/ml) | increase of the expression level of myogenin protein ([2]; 0.01-0.1 μg/ml) | Expression level of MyHC (%) ([3]; 0.01 ng/mL) | Expression level of MyHC (%) ([3]; 0.1 ng/mL) | Expression level of MyHC (%) ([3]; 1 ng/mL) | Expression level of MyHC (%) ([3]; 10 ng/mL) | increase of the expression level of MyHC protein ([3]; 10 μg/ml, vs control) |
| --- | --- | --- | --- | --- | --- | --- | --- | --- | --- | --- | --- | --- | --- |
| TNF-α | increased | significantly increased | – | – | – | – | – | – | – | – | – | – | – |
| C=C(CC[C@@H](C(=O)O)[C@H]1[C@H](O)C[C@@]2(C)C3=C(CC[C@]12C)[C@@]1(C)CC[C@H](O)C(C)(C)[C@@H]1CC3)C(C)C [Tumulosic acid, tumulosic acid] | – | – | 130% | 130% | 160% | 490% | about 390% | about 30% | 90% | 80% | 70% | 180% | about 80% |
